Measured values from EP0500137A1, “1,2,4-Triazolo[1,5-a]pyrimidine derivatives, a process for preparing them as well as medicaments containing them and the use of them” (EGIS GYOGYSZERGYAR, priority 1991, dated 1992).

Test system: gastric acid secretion
Experiment: gastric acid secretion inhibiting effect, method of Shay (pylorus bound, free acid titrated)
Format: in vivo, Rats (Wistar breed)
Conditions: given 3 hours before the operation, free acid determined 4 hours after the operation, inhibition in relation to the control
Experimental: Rats of both sexes (Wistar breed, weighing 180-240 g) were fastened for 48 hours. On the day of the test the pylorus of the animals was bound under ether narcosis. The test compounds were administered orally 3 hours before the operation. 4 hours after the operation the animals were anaesthetized and the stomach was removed, the content thereof was centrifuged and the amount of the free acid was determined by titration, in the presence of Töpfer reagent. The inhibition in relation to the control is calculated in percentage.

CSc1nc2nc3c(c(Cl)n2n1)CCC3 [Example 2, 5-Chloro-2-methylthio-6,7-dihydro-8H-cyclopenta[d]-1,2,4-triazolo[1,5-a]pyrimidine]
Inhibition % (Dose 30 mg/kg peroral): 73%

Clc1c2c(nc3nc(N4CCOCC4)nn13)CCCC2 [Example 12, 5-Chloro-2-morpholino-6,7,8,9-tetrahydro-1,2,4-triazolo[5,1-b]quinazoline]
Inhibition % (Dose 200 mg/kg peroral): 85%

CSc1nc2nc3c(c(Cl)n2n1)CCCC3 [Example 6, 5-Chloro-2-methylthio-6,7,8,9-tetrahydro-1,2,4-triazolo[5,1-b]quinazoline]
Inhibition % (Dose 60 mg/kg peroral): 100%

COc1cc(C(=S)N2CCOCC2)cc(OC)c1OC [Trithiozine, 3,4,5-Trimethoxythio-benzoic acid morpholide, reference compound]
Inhibition % (Dose 400 mg/kg peroral): 63%
